Like-named read-outs stand apart in the source and are kept apart here.
Tests used:
[1] = molecular target: T1, CDK1/Cyclin B (Homo sapiens, UniProt P06493); experiment: Enzymatic assay for CDK1 (LANCE Ultra kinase assay, FRET based); assay type: biochemical; details: ATP at Km; read-out: CDK1 enzymatic activity IC50
T1 construct: purchased Invitrogen PR4768C
Method in brief: (§1)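 Purified CDK7/Cyclin H/MNAT1 or CDK1/Cyclin B complexes were tested for inhibition at Km ATP. Phosphorylation of a ULight-labelled peptide was detected by FRET with a Europium anti-phospho antibody (LANCE Ultra).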

[2] = molecular target: T2, CDK2/Cyclin A (Homo sapiens, UniProt P24941); experiment: Enzymatic assay for CDK2 (LANCE Ultra kinase assay, FRET based); assay type: biochemical; details: ATP at Km
T2 construct: purchased Invitrogen PV6290
Method in brief: (§2)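 Inhibition was measured at ATP Km with 68 nM ULight-MBP peptide and CDK2/Cyclin A ([…]) or CDK5/p25 ([…]), using 8-dose 4-fold compound dilutions from DMSO. Kinase reaction ran 60 min at 23° C, then Eu anti-phospho-MBP plus EDTA were added for another 60 min before the fluorescence read.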

[3] = molecular target: T3, CDK5/p25 (Homo sapiens, UniProt Q00535); experiment: Enzymatic assay for CDK5 (LANCE Ultra kinase assay, FRET based); assay type: biochemical; details: ATP at Km
T3 construct: purchased Invitrogen PR8543B
Method in brief: as §2

[4] = molecular target: T4, CDK7/Cyclin H/MNAT1 (Homo sapiens, UniProt P50613); experiment: Enzymatic assay for CDK7 (LANCE Ultra kinase assay, FRET based); assay type: biochemical
T4 construct: purchased Invitrogen PR6749B
Method in brief: as §1

[5] = system: H460; experiment: Cellular H460 viability assay (CellTiter-Glo, 72 hours); assay type: cell-based; details: Homo sapiens, NCI-H460; H460 cells
[6] = molecular target: T5, 28 CDKs family protein kinases (Homo sapiens, UniProt Q00535); experiment: In vitro IC50 profile for CDKs family kinase (33PanQinase Activity Assay, ProQinase); assay type: biochemical; parameters: fused on or other part: GST or His tag; details: CDK5/p25NCK; read-out: CDK7 selectivity profile in CDKs family, IC50
Experimental: (§3) The IC50 profile of compound 11 was determined using 28 CDKs family protein kinases through ProQinase GmbH (Freiburg, Germany). All the protocol and materials had been provided by ProQinase GmbH. Briefly, in the process, 90 μl H2O were added to each well of a compound dilution plate. To minimize potential precipitation, the H2O was added to the plate only a few minutes before the transfer of the compound solutions into the assay plates. The plate was shaken thoroughly, resulting in a “compound dilution plate/10% DMSO”. The compound dilution plate(s) were discarded at the end of the working day. For the assays (see below), 5 μl solution from each well of the compound dilution plate were transferred into the assay plates. The final volume of the assay was 50 μl. […] Kinases from external vendors, Carna Biosciences Inc.; Invitrogen Corp.; and Millipore Corp., were expressed, purified and quality-controlled by virtue of the vendors readings. […] Incorporation of ^33Pi was determined with a microplate scintillation counter (Microbeta, Wallac). […] The residual activity (in %) for each well of a particular plate was calculated by using the following formula: Res. Activity (%)=100×[(cpm of compound−low control)/(high control−low control)].
Target sequence in this assay (Q00535 whole entry, the tested form may be a part): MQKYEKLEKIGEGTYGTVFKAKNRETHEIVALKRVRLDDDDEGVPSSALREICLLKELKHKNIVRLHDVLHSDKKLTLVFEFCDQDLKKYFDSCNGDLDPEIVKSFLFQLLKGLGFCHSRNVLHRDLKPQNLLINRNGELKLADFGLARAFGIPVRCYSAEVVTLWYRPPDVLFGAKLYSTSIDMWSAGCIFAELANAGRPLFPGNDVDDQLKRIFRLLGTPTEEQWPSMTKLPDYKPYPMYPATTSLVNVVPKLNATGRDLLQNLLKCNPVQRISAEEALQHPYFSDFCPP

[7] = molecular target: T5, 28 CDKs family protein kinases; experiment: as above; assay type: biochemical; parameters: purchased ProQinase GmbH; host or cells: Sf9 insect cells or E. coli; details: CDK5/p35NCK; read-out: CDK7 selectivity profile in CDKs family, IC50
Experimental: as §3
Target sequence in this assay (Q00535 whole entry, the tested form may be a part): as above
Target sequence in this assay (Q15078 whole entry partner, the tested form may be a part): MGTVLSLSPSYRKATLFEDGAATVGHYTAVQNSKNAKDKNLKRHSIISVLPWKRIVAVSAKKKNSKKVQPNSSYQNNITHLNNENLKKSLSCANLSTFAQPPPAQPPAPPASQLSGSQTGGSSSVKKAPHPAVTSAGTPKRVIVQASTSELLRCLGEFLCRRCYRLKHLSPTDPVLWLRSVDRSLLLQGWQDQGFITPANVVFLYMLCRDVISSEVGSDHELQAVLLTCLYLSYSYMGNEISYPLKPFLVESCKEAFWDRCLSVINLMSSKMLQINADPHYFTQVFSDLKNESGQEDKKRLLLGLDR

T4 sequence (P50613 whole entry): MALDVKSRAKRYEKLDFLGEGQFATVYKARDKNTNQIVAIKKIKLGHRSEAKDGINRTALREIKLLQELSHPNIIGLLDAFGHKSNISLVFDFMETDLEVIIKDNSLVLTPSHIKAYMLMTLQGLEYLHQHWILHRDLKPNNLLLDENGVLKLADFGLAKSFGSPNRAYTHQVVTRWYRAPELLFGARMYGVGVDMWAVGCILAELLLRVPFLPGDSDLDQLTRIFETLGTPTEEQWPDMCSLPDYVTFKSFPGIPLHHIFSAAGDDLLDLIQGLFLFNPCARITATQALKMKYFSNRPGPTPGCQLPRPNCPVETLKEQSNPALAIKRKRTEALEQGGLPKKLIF
T4 sequence (P51946 whole entry partner): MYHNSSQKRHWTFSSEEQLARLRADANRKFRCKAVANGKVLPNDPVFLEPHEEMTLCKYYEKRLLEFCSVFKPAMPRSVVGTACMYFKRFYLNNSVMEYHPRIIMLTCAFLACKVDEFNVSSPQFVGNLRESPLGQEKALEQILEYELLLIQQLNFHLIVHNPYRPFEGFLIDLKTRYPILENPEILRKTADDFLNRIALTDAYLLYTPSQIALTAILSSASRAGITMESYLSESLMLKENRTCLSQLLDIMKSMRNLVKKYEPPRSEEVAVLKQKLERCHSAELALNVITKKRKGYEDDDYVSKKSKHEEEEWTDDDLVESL
T4 sequence (P51948 whole entry partner): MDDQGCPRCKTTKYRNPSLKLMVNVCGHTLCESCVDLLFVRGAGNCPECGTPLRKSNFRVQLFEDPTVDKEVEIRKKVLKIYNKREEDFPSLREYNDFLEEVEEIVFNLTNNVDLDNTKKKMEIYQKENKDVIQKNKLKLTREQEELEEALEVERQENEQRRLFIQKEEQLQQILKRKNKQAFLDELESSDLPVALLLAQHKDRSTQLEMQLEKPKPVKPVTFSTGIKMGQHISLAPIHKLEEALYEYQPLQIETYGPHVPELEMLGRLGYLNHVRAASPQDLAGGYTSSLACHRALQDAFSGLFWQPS
T1 sequence (P06493 whole entry): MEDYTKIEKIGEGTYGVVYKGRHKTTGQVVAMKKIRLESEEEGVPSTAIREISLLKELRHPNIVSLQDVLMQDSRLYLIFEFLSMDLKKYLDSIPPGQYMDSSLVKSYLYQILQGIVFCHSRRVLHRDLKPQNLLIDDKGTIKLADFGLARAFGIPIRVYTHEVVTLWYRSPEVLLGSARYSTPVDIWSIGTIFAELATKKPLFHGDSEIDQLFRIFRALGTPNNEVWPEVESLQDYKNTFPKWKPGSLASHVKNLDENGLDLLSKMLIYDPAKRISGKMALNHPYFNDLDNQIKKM
T1 sequence (P14635 whole entry partner): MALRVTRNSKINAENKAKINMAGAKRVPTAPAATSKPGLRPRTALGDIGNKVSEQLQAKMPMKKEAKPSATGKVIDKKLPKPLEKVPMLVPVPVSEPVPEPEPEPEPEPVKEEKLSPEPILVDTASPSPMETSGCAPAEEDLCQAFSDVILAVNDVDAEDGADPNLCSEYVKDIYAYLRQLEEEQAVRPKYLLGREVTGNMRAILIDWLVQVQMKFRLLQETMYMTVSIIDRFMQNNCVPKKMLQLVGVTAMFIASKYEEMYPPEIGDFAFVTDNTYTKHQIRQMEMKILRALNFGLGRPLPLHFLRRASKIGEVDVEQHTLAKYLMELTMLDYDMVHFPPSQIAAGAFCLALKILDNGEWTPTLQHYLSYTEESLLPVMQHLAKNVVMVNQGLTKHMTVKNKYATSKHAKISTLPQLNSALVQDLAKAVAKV
T3 sequence (Q00535 whole entry): as the sequence (Q00535 whole entry, the tested form may be a part) above
T3 sequence (Q15078 99-307 partner limits assumed): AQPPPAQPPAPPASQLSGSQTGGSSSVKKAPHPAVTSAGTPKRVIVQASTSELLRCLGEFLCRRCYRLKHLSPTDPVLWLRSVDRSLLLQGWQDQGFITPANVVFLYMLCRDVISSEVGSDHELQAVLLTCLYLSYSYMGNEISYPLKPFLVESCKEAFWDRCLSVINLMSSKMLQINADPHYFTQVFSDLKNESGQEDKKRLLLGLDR

Q: With CC(C)c1cnn2c(NCc3ccccc3-c3nccc4cc(NC(=O)/C=C/CN(C)C)ccc34)nc(N3CCC(N)CC3)nc12 [Compound 11] as the compound, how does the IC50 [1] read?
A: Its IC50 is over 1000 nM.

Q: What about the IC50 [2] of the same compound?
A: Its IC50 is over 1000 nM.

Q: What about the IC50 [3] of the same compound?
A: The IC50 was over 1000 nM.

Q: What about the IC50 ([4]; ATP at Km) of the same compound?
A: Its IC50 is under 100 nM.

Q: And the “CDK1/CDK7: Selectivity of CDK7 inhibition over CDK1 inhibition” value ([4]; CDK7 over CDK1)?
A: The value was “A (A indicates [fold] > 500)”.

Q: What about the “CDK2/CDK7: Selectivity of CDK7 inhibition over CDK2 inhibition” value ([4]; CDK7 over CDK2) of the same compound?
A: Its value is “A (A indicates [fold] > 500)”.

Q: And the “CDK5/CDK7: Selectivity of CDK7 inhibition over CDK5 inhibition” value ([4]; CDK7 over CDK5)?
A: Its value is “A (A indicates [fold] > 500)”.

Q: What about the IC50 [5] of the same compound?
A: The IC50 was under 1000 nM.

Q: What about the IC50 [6] of the same compound?
A: Its IC50 is over 10000 nM.

Q: What about the IC50 [7] of the same compound?
A: The IC50 was 7860 nM.
